Experimental findings from patent US10004809B2, “Precise delivery of therapeutic agents to cell mitochondria for anti-cancer therapy” (UNIVERSITY OF GEORGIA RESEARCH FOUNDATION, INC., priority 2013, dated 2018) are described below.

In data set [1] the test system is PC3 cells. The data set is described as follows: Annexin V/PI apoptosis detection by flow cytometry. The data set is classed as cell-based, Human. Particulars: 50 μM. As to the method:
In order to determine whether the enhanced activity of MITO-DCA upon targeting this compound to the mitochondria of cells was due to apoptosis rather than necrosis, an ALEXA FLUOR™ 488-Annexin-V and propidium iodide (PI) cell staining in PC3 and MSC cells was carried out and data were analyzed using flow cytometry (FIG. 4B). As controls, etoposide treated cells were used as early apoptosis population and H2O2 treated cells were marked as late apoptotic or necrotic population. […] There were no late apoptotic or necrotic cells observed with these compounds.
PC3 and MSC cells were seeded at a density of 1×10^6 cells/mL on each well of a six well plate and allowed to grow overnight. Cells were treated with 50 μM Na-DCA, 150 μM TPP-DCA, and 150 μM MITO-DCA for 12 h at 37° C. As positive controls, etoposide (100 μM, incubation time: 12 h) for apoptosis and H2O2 (1 mM, incubation time: 45 min) for necrosis were used. The cells were trypsinized, repeatedly washed, and centrifuged at 1,800 RPM for 3 min, and the supernatants were discarded. Cell density was determined and cells were resuspended in 1× annexin-binding buffer to ˜1×10^6 cells/mL preparing a sufficient volume to have 100 µL per assay. To 100 μL of cell suspension, 5 μL ALEXA FLUOR™ 488 annexin V and 1 µL 100 μg/mL PI working solution were added and incubated for 15 min at room temperature. After the incubation period, 400 μL 1× annexin-binding buffer was added to each sample, samples were gently mixed keeping the samples on ice and the samples were analyzed on the flow cytometer immediately.
Background: A flow cytometer gives signals particle by particle.

Data set [2] concerns PC3 cells. Description: Cytokine production by treated PC3 cells (ELISA). The data set is classed as cell-based, Human. Particulars: 50 μM, 24 h. The text has this:
Cancer cells recruit several pathways to evade elimination by the immune system (Kim et al., Immunology 121:1-14, 2007). Several mechanisms by which tumor cells escape immunity include upregulation of inhibitory molecules, production of immunosuppressive cytokines, and downregulation of costimulatory molecules (Rabinovich et al., Annu. Rev. Immunol. 25:267-296, 2007). Dendritic cells (DCs), the major players for the initiation of a specific anti-tumor T-cell response, are potential target to tumor-mediated immunosuppression. (Gabrilovich et al., Nat. Med. 2:1096-1103, 1996; Radmayr et al., Int. J. Cancer 63:627-632, 1995; Orsini et al., Cancer Res. 63:4497-4506, 2003.) Lactic acid secretion in highly proliferative glycolytic tumor has the ability to induce alteration in antigen phenotype and functional activity of DCs, which contributes to the suppression of local immunity (Gottfried et al. 2006). Tumor derived lactic acid inhibit the differentiation of monocytes to DCs, impair DC activation and antigen expression and suppress the proliferation, cytokine production and cytotoxic activity of T cells (Fischer et al., Blood 109:3812-3819, 2007). After observing significant and very selective reduction in lactate levels in PCa cells by MITO-DCA, the impact of the reduced lactate producing PC3 cell supernatants on DCs was investigated. […]

Another data set can be described thus: Solubility study. The data set is classed as physicochemical. The procedure:
Solubility of MITO-DCA in water was checked by preparing different concentration of MITO-DCA ranging from 2 μM to 5 mM in DMSO (0.1-2.5%)-phosphate buffered saline (PBS). At all concentrations, MITO-DCA was transparent.

On to `O=C(CCCCC[P+](c1ccccc1)(c1ccccc1)c1ccccc1)NC(COC(=O)C(Cl)Cl)(COC(=O)C(Cl)Cl)COC(=O)C(Cl)Cl.[Br-]` [MITO-DCA], for which, in the data set on PC3 cells [1], the “Apoptosis (annexin V/PI)” value is “complete early apoptosis”. In the data set on PC3 cells [2], the “Levels of IL-6, IL-10 and TNF-α from PC3 cells, compared with TPP-DCA or Na-DCA” value is “higher”. In the data set “Solubility study” (2 μM to 5 mM in DMSO (0.1-2.5%)-phosphate buffered saline (PBS)), the “Solubility in water (appearance of solution)” value was “transparent”. Besides, the “Solubility in an organic solvent” value in “Solubility study” (compared with DCA) was “far higher than that of DCA”.
